# Results from US20220281879A1, “SALT AND CRYSTAL FORMS OF AN ACTIVIN RECEPTOR-LIKE KINASE INHIBITOR” (Blueprint Medicines Corporation, priority 2019, published 2022).
# Entries after “also recorded” stand apart in the source; their conditions may differ. Structures can show the parent of a compound that is named as a salt. Where two headings read alike, the source gives them in different places.
# Assays:
# [1] = Drying and humidity exposure (>90% RH) with XRPD; conditions: for physical stability on humidity exposure: >90% RH, overnight / one day; for physical stability on humidity exposure / stability on drying and humidity exposure: XRPD; for stability on drying and humidity exposure: dried under vacuum at 50° C., then >90% RH one day; for physical stability in humid environment, prolonged: >90% relative humidity, days to one week
# Experimental: XRPD analysis was done in three stages. XRPD of the wet cake was done for all samples (where solids were observed). Unique solids were then left on XRPD plates and dried under vacuum at 50° C. for at least 3 hours. XRPD of unique dry solids was then done. Solids were then exposed to >90% relative humidity for one day and XRPD on resulted solids was done. The humid environment was generated by placing a beaker of saturated potassium sulfate in water in a sealed container. All XRPD patterns were compared to counter ion XRPD patterns and known free molecule patterns.
# A crystalline form of the free base was exposed to high humidity (>90% RH) overnight. The humid environment was generated by placing a beaker of saturated potassium sulfate in water in a sealed container.
# [2] = Exposure to dry conditions and re-humidification with XRPD; format: physicochemical
# Experimental: The 1:1 Compound (I) Crystalline HCl salt Monohydrate obtained from Example 3.1 was exposed to various drying conditions and then analyzed by XRPD.
# The conditions were: (1) room temperature in vial containing P2O5 at 50° C., (2) 60° C. under vacuum, and (3) heating to 140° C. in DSC.
# The HCl salt exposed to P2O5 at 50° C. was sampled for XRPD at the 7 day mark.
# [3] = Humidity exposure at 75% relative humidity / 40° C. for one week with XRPD; conditions: 75% RH / 40° C.
# Experimental: The Sesqui-Succinate obtained in Example 2.1 was exposed to 75% relative humidity at 40° C. for one week. The samples were placed in a 4 mL vial covered with a Kimwipe® and then placed in a 20 mL vial containing 3-4 mL saturated NaCl in water. The 20 mL vials were sealed and held at 40° C. Solids were collected for XRPD analysis after one week.
# HCl salt Monohydrate Form A was placed at 40° C./75% relative humidity for one week. About 10 mg sample was placed in a 4 mL vial covered with a Kimwipe®. The vial was then placed inside a 20 mL sealed vial containing saturated aqueous sodium chloride.
# [4] = Solubility at 37° C. in water and simulated fluids (FaSSIF, FaSSGF); format: physicochemical; conditions: for Solubility at 37° C. FaSSGF: fasted state simulated gastric fluid; for Solubility at 37° C. FaSSIF: fasted state simulated intestinal fluid
# Excerpt: Crystalline salts were characterized and evaluated for viability based on melting point, crystallinity, stability on drying and humidity exposure, water solubility, polymorphism, and acceptability of counter-ion.
# [5] = Dynamic Vapor Sorption (DVS); format: physicochemical; conditions: for XRPD after DVS measurement: after 2-95% RH cycle; for DVS Mass Change: between 2 and 95% relative humidity at 25° C.
# Experimental: Dynamic Vapor Sorption (DVS) was done using a DVS Intrinsic 1. The sample was loaded into a sample pan and suspended from a microbalance. A typical sample mass for DVS measurement is 25 mg. Nitrogen gas bubbled through distilled water provides the desired relative humidity. The sample was held for a minimum of 5 min at each level and only progressed to the next humidity level if there was <0.002% change in weight between measurements (interval: 60 seconds) or […] had elapsed. A typical measurement comprises the steps: • 1—Equilibrate at 50% RH • 2—50% to 2%. (50%, 40%, 30%, 20%, 10% and 2%) • a. Hold minimum of 5 mins and maximum of 60 minutes at each humidity. • The pass criteria is less than 0.002% change • 3—2% to 95% (2%, 10%, 20%, 30%, 40%, 50%, 60%, 70%, 80%, 90%, 95%) • a. Hold minimum of 5 mins and maximum of 60 minutes at each humidity.
# The pass criteria is less than 0.002% change • 4—95% to 2% (95%, 80%, 70%, 60%, 50%, 40%, 30%, 20%, 10%, 2%) • a. Hold minimum of 5 mins and maximum of 60 minutes at each humidity. • The pass criteria is less than 0.002% change • 5—2% to 50% (2%, 10%, 20%, 30%, 40%, 50%) • a. Hold minimum of 5 mins and maximum of 60 minutes at each humidity. • The pass criteria is less than 0.002% change
# [6] = Variable humidity and variable temperature XRPD (VH-XRPD, VT-XRPD); format: physicochemical; conditions: for variable humidity XRPD: change of crystalline structure: 0-90% RH; for variable temperature XRPD: change of crystalline structure: ambient to 160° C.
# Experimental: Powder X-ray diffraction was done using a Rigaku MiniFlex 600 or a Bruker D8 Advance equipped with Lynxeye detector in reflection mode (i.e. Bragg-Brentano geometry). Samples were prepared on Si zero-return wafers. A typical scan is from 2θ of 4 to 30 degrees, with step size 0.05 degrees over five minutes with 40 kV and 15 mA. A high-resolution scan is from 2θ of 4 to 40 degrees, with step size 0.05 degrees over thirty minutes with 40 kV and 15 mA. Typical parameters for XRPD are listed below.
# [7] = Solubility in organic solvent systems at room temperature; format: physicochemical; conditions: organic solvent or mixture, most organic solvents tested
# [8] = listed as HCl salt Monohydrate Form A
# [9] = listed as Compound (I) Sesqui-Succinate Form A
# [10] = listed as Compound (I) Sesqui-Succinate salt Form A
# [11] = listed as free base of Compound (I)
structure (smiles),measurement,setting,value
CCOC1(c2ccc(-c3cc4c(N5CCN(C(=O)O[C@@H]6CCOC6)CC5)ccnn4c3)nc2)CCN(C(C)C)CC1 [maleate],physical stability on humidity exposure,[1],deliquescence; also recorded: deliquesced
same,physical stability on humidity exposure,[1]; listed as maleic acid,deliquesced
CCOC1(c2ccc(-c3cc4c(N5CCN(C(=O)O[C@@H]6CCOC6)CC5)ccnn4c3)nc2)CCN(C(C)C)CC1 [Form D],form conversion on exposure to ambient conditions,"[2]; bench, 22-23° C., 28-35% RH, 2.25 hours",converted to Form A
same,physical stability on humidity exposure,[1],converted to Form A (monohydrate)
same,physical stability after one week humidity exposure,[3],converted to Form A (monohydrate)
CCOC1(c2ccc(-c3cc4c(N5CCN(C(=O)O[C@@H]6CCOC6)CC5)ccnn4c3)nc2)CCN(C(C)C)CC1 [Salicylate],physical stability on humidity exposure,[1]; listed as salicylic acid,did not deliquesce
CCOC1(c2ccc(-c3cc4c(N5CCN(C(=O)O[C@@H]6CCOC6)CC5)ccnn4c3)nc2)CCN(C(C)C)CC1 [Besylate],physical stability on humidity exposure,[1],deliquesced
same,physical stability on humidity exposure,[1]; listed as besylate,deliquescence
CCOC1(c2ccc(-c3cc4c(N5CCN(C(=O)O[C@@H]6CCOC6)CC5)ccnn4c3)nc2)CCN(C(C)C)CC1 [Mono-HCl Form A],solubility in water and in simulated gastric fluids (in words),[4],good solubility
same,Solubility at 37° C. FaSSGF,[4],6.96 mg/mL
same,Solubility at 37° C. FaSSGF,[4]; listed as mono-HCl salt,> 30 mg/mL
same,Solubility at 37° C. FaSSIF,[4],30.9 mg/mL
same,Solubility at 37° C. FaSSIF,[4]; listed as mono-HCl salt,~7 mg/mL
same,Solubility at 37° C. Water,[4]; water,33.4 mg/mL
same,Solubility at 37° C. Water,"[4]; water, listed as mono-HCl salt",> 30 mg/mL
same,DVS mass change occurring below 20% relative humidity,"[5]; 25° C., below 20% RH",0.99-1.11 wt. %
same,XRPD after DVS measurement,[5]; [8],extra peaks were observed
same,DVS Mass Change,[5],1.30-1.43 wt. %
same,DVS Mass Change,[5]; [8],1.30-1.43 wt. %
same,hygroscopicity (in words),[5]; listed as 1:1 hydrochloric acid salt,non-hygroscopic
same,variable humidity XRPD: change of crystalline structure,[6]; [8],small shift
same,variable temperature XRPD: change of crystalline structure,[6]; [8],does not appear to collapse and/or re-arrange
same,XRPD after exposure to drying conditions,"[2]; P2O5 at 50° C., 60° C. under vacuum, heating to 140° C. in DSC",a new XRPD pattern was observed
same,physical stability on humidity exposure,[1]; listed as HCl (1 eq.),did not deliquesce
same,physical stability after one week humidity exposure,[3]; [8],minor peak shifts
CCOC1(c2ccc(-c3cc4c(N5CCN(C(=O)O[C@@H]6CCOC6)CC5)ccnn4c3)nc2)CCN(C(C)C)CC1 [fumarate Form B],stability on drying and humidity exposure,[1],stable on drying and humidity exposure
CCOC1(c2ccc(-c3cc4c(N5CCN(C(=O)O[C@@H]6CCOC6)CC5)ccnn4c3)nc2)CCN(C(C)C)CC1 [Form I],physical stability on humidity exposure,[1],partially converted to Form A
CCOC1(c2ccc(-c3cc4c(N5CCN(C(=O)O[C@@H]6CCOC6)CC5)ccnn4c3)nc2)CCN(C(C)C)CC1 [bis-HCl],physical stability on humidity exposure,[1],deliquesced
same,physical stability on humidity exposure,[1]; listed as 2:1 HCl,deliquescence
CCOC1(c2ccc(-c3cc4c(N5CCN(C(=O)O[C@@H]6CCOC6)CC5)ccnn4c3)nc2)CCN(C(C)C)CC1 [fumarate],solubility in water and in simulated gastric fluids (in words),[4],good solubility
CCOC1(c2ccc(-c3cc4c(N5CCN(C(=O)O[C@@H]6CCOC6)CC5)ccnn4c3)nc2)CCN(C(C)C)CC1 [Succinate Form A],solubility in water and in simulated gastric fluids (in words),[4],good solubility
same,Solubility at 37° C. FaSSGF,[4],>25.9 mg/mL
same,Solubility at 37° C. FaSSIF,[4],>22.2 mg/mL
same,solubility in water and simulated fluids (all fluids),[4]; in all fluids,> 22 mg/mL
same,Solubility at 37° C. Water,[4]; water,>34.0 mg/mL
same,solubility,"[4]; water, FaSSIF and FaSSGF (all fluids), thermodynamic from solid, in all fluids",> 22 mg/mL
same,hygroscopicity (in words),[5],less hygroscopic than the mono-HCl salt and freebase
same,DVS mass change occurring above 80% relative humidity,"[5]; 25° C., above 80% RH",0.34-0.35 wt. %
same,XRPD after DVS measurement,[5]; [9],remained as Form-A
same,DVS Mass Change,[5],0.59-0.60 wt. %
same,DVS Mass Change,[5]; [9],0.59-0.60 wt. %
same,hygroscopicity (in words),[5]; listed as 1.5:1 succinic acid salt,non-hygroscopic
same,variable humidity XRPD: change of crystalline structure,[6]; [10],no change in the crystalline structure
same,variable temperature XRPD: change of crystalline structure,[6]; [10],no change in the crystalline structure
same,physical stability on humidity exposure,[1]; listed as succinic acid,did not deliquesce
same,stability on drying and humidity exposure,[1],stable on drying and humidity exposure
same,physical stability after one week humidity exposure,[3]; [9],physically stable by XRPD
CCOC1(c2ccc(-c3cc4c(N5CCN(C(=O)O[C@@H]6CCOC6)CC5)ccnn4c3)nc2)CCN(C(C)C)CC1 [Amorphous solid (Compound (I) Sesqui-Succinate)],physical stability after one week humidity exposure,[3],crystalline Form A
CCOC1(c2ccc(-c3cc4c(N5CCN(C(=O)O[C@@H]6CCOC6)CC5)ccnn4c3)nc2)CCN(C(C)C)CC1 [Compound (I)],Solubility at 37° C. FaSSGF,[4]; listed as Freebase,7.29 mg/mL
same,Solubility at 37° C. FaSSGF,[4]; listed as freebase,~17 mg/mL
same,Solubility at 37° C. FaSSIF,[4]; listed as Freebase,17.9 mg/mL
same,Solubility at 37° C. FaSSIF,[4]; listed as freebase,~7 mg/mL
same,Solubility at 37° C. Water,"[4]; water, listed as freebase",0.08 mg/mL
same,solubility,[7],> 200 mg/mL
same,DVS mass change occurring above 70% relative humidity,"[5]; 25° C., above 70% RH",0.46-0.53 wt. %
same,DVS Mass Change,[5]; listed as Freebase,0.88-0.92 wt. %
same,DVS Mass Change,[5]; [11],0.88-0.92 wt. %
same,physical stability on humidity exposure,[1]; listed as free base,lost some crystallinity
same,"physical stability in humid environment, prolonged",[1]; listed as free base,deliquesced
same,"physical stability in humid environment, prolonged",[1]; [11],physically unstable
same,"physical stability in humid environment, prolonged",[1]; listed as freebase,turned into a sticky gum
same,behaviour on exposure to water,[1]; [11],tends to gum
same,behaviour on exposure to water,[1]; listed as freebase,gums in water
CCOC1(c2ccc(-c3cc4c(N5CCN(C(=O)O[C@@H]6CCOC6)CC5)ccnn4c3)nc2)CCN(C(C)C)CC1 [Benzoate],water solubility (in words),[4]; salt screening evaluation,poor water solubility
same,physical stability on humidity exposure,[1]; listed as benzoic acid,did not deliquesce
